# Laboratory results published in US20130102595A1 (Curis, Inc., priority 2011, published 2013).
# pIC50: −log10 of the molar value.
# What was measured:
# [1] = test system: HDACs (HeLa cell nuclear extracts); experiment: HDAC enzymatic activity, Biomol Color de Lys system; type: biochemical; conditions: 1 hour, 25° C.
# Outline: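 HeLa nuclear extract incubated with serially diluted compound and […] artificial substrate in 50 mM Tris/Cl pH 8.0, 137 mM NaCl, 2.7 mM KCl, 1 mM MgCl2. Run 1 h at 25 °C, stopped with developer. Fluorescence read (ex 350-380, em 440-460 nm); IC50 from sigmoidal dose-response fit.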
# PI3Kα (p110α/p85α) = target: T1, PI3Kα (p110α/p85α) (Homo sapiens, UniProt P42336); experiment: PI3Kα ADP-Glo assay; type: biochemical; conditions: 20 μM PIP2, 10 μM ATP, 30 minutes
# T1 construct: GST (N); made in house; host or cells: Baculovirus-infected Sf9 cells
# T1 sequence (P42336 whole entry): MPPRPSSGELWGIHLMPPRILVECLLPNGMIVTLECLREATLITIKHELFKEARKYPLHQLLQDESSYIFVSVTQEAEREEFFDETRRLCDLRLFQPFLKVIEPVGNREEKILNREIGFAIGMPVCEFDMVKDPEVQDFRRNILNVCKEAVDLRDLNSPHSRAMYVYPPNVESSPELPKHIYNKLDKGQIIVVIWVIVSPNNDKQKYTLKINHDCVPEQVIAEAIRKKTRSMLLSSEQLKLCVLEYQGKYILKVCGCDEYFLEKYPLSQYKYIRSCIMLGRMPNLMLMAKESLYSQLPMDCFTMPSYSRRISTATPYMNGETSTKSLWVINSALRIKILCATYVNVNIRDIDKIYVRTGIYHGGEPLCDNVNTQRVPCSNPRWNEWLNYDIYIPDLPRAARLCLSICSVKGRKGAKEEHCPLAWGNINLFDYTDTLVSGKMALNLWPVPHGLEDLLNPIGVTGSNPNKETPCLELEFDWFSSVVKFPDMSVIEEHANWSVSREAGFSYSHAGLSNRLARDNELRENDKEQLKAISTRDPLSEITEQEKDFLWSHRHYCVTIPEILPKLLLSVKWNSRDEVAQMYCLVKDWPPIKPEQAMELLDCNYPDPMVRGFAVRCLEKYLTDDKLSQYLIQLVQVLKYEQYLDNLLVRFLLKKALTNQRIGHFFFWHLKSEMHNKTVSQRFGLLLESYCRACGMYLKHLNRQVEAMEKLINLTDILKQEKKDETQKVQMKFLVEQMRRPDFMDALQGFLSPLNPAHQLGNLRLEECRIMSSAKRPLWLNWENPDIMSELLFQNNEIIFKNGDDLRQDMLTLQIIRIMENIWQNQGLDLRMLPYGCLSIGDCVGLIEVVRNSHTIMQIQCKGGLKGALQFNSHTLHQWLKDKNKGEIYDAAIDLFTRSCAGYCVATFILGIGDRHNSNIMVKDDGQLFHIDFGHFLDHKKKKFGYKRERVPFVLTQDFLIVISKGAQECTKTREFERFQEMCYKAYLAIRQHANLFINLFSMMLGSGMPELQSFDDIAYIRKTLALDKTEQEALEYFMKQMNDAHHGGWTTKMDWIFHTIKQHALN
# T1 sequence (P27986 whole entry partner): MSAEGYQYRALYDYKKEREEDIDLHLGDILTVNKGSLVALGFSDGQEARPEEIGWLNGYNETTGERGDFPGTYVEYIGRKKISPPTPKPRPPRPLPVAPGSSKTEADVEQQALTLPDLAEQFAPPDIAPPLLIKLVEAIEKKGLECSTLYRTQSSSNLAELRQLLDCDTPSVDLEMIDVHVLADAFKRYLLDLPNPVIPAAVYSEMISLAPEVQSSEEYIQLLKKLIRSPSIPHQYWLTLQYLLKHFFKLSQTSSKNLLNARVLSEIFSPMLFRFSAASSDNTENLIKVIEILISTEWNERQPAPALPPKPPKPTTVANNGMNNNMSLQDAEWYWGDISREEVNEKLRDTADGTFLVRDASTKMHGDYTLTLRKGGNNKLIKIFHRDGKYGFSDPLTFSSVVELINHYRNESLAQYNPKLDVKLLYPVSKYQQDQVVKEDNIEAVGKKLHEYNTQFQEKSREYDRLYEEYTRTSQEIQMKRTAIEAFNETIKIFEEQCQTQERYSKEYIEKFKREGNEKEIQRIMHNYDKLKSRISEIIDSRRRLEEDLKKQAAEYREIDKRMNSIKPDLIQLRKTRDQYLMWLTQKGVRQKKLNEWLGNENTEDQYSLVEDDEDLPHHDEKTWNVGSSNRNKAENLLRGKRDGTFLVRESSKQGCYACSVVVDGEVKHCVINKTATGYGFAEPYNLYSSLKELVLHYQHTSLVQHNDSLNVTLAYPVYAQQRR
# Outline: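 Recombinant full-length human GST-p110α/His-p85α, co-expressed in Sf9 cells, was incubated 30 min at room temperature with 20 μM PIP2 and 10 μM ATP. The buffer was 50 mM HEPES pH 7.4, 150 mM NaCl, 5 mM MgCl2, 1 mM DTT, 3 µM orthovanadate and 0.5% DMSO. ADP formed was detected by ADP-Glo luminescence.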
SMILES,pIC50 [1],pIC50 (PI3Kα (p110α/p85α)),melting point
"CS(=O)(=O)N1CCN(Cc2cc3nc(-c4cccc5nn(CCCCCCC(=O)NO)cc45)nc(N4CCOCC4)c3s2)CC1 [Compound 9, N-hydroxy-7-(4-(6-((4-(methylsulfonyl)piperazin-1-yl)methyl)-4-morpholinothieno[3,2-d]pyrimidin-2-yl)-2H-indazol-2-yl)heptanamide]",> 7.00,< 5.00,123 to 126 °C
"CN(Cc1cc2nc(-c3ccc(N)c(C#N)c3)nc(N3CCOCC3)c2s1)c1ncc(C(=O)NO)cn1 [Compound 280, 2-(((2-(4-Amino-3-cyanophenyl)-4-morpholinothieno[3,2-d]pyrimidin-6-yl)methyl)(methyl)amino)-N-hydroxypyrimidine-5-carboxamide]",> 7.00,6.00 to 7.00,237 to 240 °C
"CC(C)c1ccc(-c2nc(N3CCOCC3)c3sc(CN(C)c4ncc(C(=O)NO)cn4)cc3n2)cc1 [Compound 148, N-hydroxy-2-(((2-(4-isopropylphenyl)-4-morpholinothieno[3,2-d]pyrimidin-6-yl)methyl)(methyl)amino)pyrimidine-5-carboxamide]",> 7.00,< 5.00,155 °C (dec.)
"CN(Cc1cc2nc(-c3ccc(N4CCCC4)cc3)nc(N3CCOCC3)c2s1)c1ncc(C(=O)NO)cn1 [Compound 155, N-hydroxy-2-(methyl((4-morpholino-2-(4-(pyrrolidin-1-yl)phenyl)thieno[3,2-d]pyrimidin-6-yl)methyl)amino)pyrimidine-5-carboxamide]",> 7.00,< 5.00,187 to 192 °C
"Nc1ncc(-c2nc(N3CCOCC3)c3sc(NCCCCCCC(=O)NO)cc3n2)cn1 [Compound 234, 7-[2-(2-Amino-pyrimidin-5-yl)-4-morpholin-4-yl-thieno[3,2-d]pyrimidin-6-ylamino]-heptanoic acid hydroxyamide]",> 7.00,> 7.00,235 to 240 °C
"CC(=O)c1cc(-c2nc(N3CCOCC3)c3sc(CN(C)c4ncc(C(=O)NO)cn4)cc3n2)ccc1N [Compound 281, 2-{[2-(3-Acetyl-4-amino-phenyl)-4-morpholin-4-yl-thieno[3,2-d]pyrimidin-6-ylmethyl]-methyl-amino}-pyrimidine-5-carboxylic acid hydroxyamide]",> 7.00,6.00 to 7.00,156 to 158 °C
"CN(Cc1cc2nc(-c3ccc(O)cc3)nc(N3CCOCC3)c2s1)c1ncc(C(=O)NO)cn1 [Compound 133, N-hydroxy-2-(((2-(4-hydroxyphenyl)-4-morpholinothieno[3,2-d]pyrimidin-6-yl)methyl)(methyl)amino)pyrimidine-5-carboxamide]",> 7.00,6.00 to 7.00,185 to 195 °C
"CN(Cc1cc2nc(-c3ccc(N)c(Cl)c3)nc(N3CCOCC3)c2s1)c1ncc(C(=O)NO)cn1 [Compound 275, 2-(((2-(4-Amino-3-chlorophenyl)-4-morpholinothieno[3,2-d]pyrimidin-6-yl)methyl)(methyl)amino)-N-hydroxypyrimidine-5-carboxamide]",> 7.00,6.00 to 7.00,241 to 246 °C
"CN(Cc1cc2nc(-c3cccc4c3CCN4)nc(N3CCOCC3)c2s1)c1ncc(C(=O)NO)cn1 [Compound 177, N-hydroxy-2-(((2-(indolin-4-yl)-4-morpholinothieno[3,2-d]pyrimidin-6-yl)methyl)(methyl)amino)pyrimidine-5-carboxamide]",> 7.00,< 5.00,146 to 156 °C
"Nc1ncc(-c2nc(N3CCOCC3)c3sc(NCCCC(=O)NO)cc3n2)cn1 [Compound 225, 4-(2-(2-aminopyrimidin-5-yl)-4-morpholinothieno[3,2-d]pyrimidin-6-ylamino)-N-hydroxybutanamide]",5.00 to 6.00,> 7.00,220 to 230 °C
"CC(O)c1ccc(F)c(-c2nc(N3CCOCC3)c3sc(CN(C)c4ncc(C(=O)NO)cn4)cc3n2)c1 (stereo not drawn) [Compound 295, 2-(((2-(2-Fluoro-5-(1-hydroxyethyl)phenyl)-4-morpholinothieno[3,2-d]pyrimidin-6-yl)methyl)(methyl)amino)-N-hydroxypyrimidine-5-carboxamide]",> 7.00,6.00 to 7.00,230 to 235 °C
"CN(Cc1cc2nc(-c3ccc(Cl)cc3)nc(N3CCOCC3)c2s1)c1ncc(C(=O)NO)cn1 [Compound 147, 2-(((2-(4-chlorophenyl)-4-morpholinothieno[3,2-d]pyrimidin-6-yl)methyl)(methyl)amino)-N-hydroxypyrimidine-5-carboxamide]",> 7.00,< 5.00,153 °C
"CS(=O)(=O)N1CCN(Cc2cc3nc(-c4ccc(OCCCCC(=O)NO)cc4)nc(N4CCOCC4)c3s2)CC1 [Compound 319, N-Hydroxy-5-(4-(6-((4-(methylsulfonyl)piperazin-1-yl)methyl)-4-morpholinothieno[3,2-d]pyrimidin-2-yl)phenoxy)pentanamide]",6.00 to 7.00,6.00 to 7.00,140 to 144 °C
"CC(=O)Nc1cccc(-c2nc(N3CCOCC3)c3sc(CN(C)c4ncc(C(=O)NO)cn4)cc3n2)c1 [Compound 107, 2-(((2-(3-acetamidophenyl)-4-morpholinothieno[3,2-d]pyrimidin-6-yl)methyl)(methyl)amino)-N-hydroxypyrimidine-5-carboxamide]",> 7.00,5.00 to 6.00,183 to 185 °C

# Next, values leading:
pIC50 [1],pIC50 (PI3Kα (p110α/p85α)),melting point,SMILES
> 7.00,< 5.00,185 to 187 °C,"CCNc1ccc(-c2nc(N3CCOCC3)c3sc(CN(C)c4ncc(C(=O)NO)cn4)cc3n2)cc1 [Compound 153, 2-(((2-(4-(ethylamino)phenyl)-4-morpholinothieno[3,2-d]pyrimidin-6-yl)methyl)(methyl)amino)-N-hydroxypyrimidine-5-carboxamide]"
> 7.00,> 7.00,202 to 207 °C,"COc1ncc(-c2nc(N3CCOCC3)c3sc(C(C)(C)Nc4ncc(C(=O)NO)cn4)cc3n2)cn1 [Compound 263, N-Hydroxy-2-(2-(2-(2-methoxypyrimidin-5-yl)-4-morpholinothieno[3,2-d]pyrimidin-6-yl)propan-2-ylamino)pyrimidine-5-carboxamide]"
> 7.00,6.00 to 7.00,115 to 118 °C,"CN(CCCCCC(=O)NO)Cc1cc2nc(-c3cccc4[nH]ncc34)nc(N3CCOCC3)c2s1 [Compound 103, 6-(((2-(1H-indazol-4-yl)-4-morpholinothieno[3,2-d]pyrimidin-6-yl)methyl)(methyl)amino)-N-hydroxyhexanamide]"
> 7.00,> 7.00,206 to 210 °C,"CNc1ncc(-c2nc(N3CCOCC3)c3sc(NCCCCC(=O)NO)cc3n2)cn1 [Compound 227, N-Hydroxy-5-(2-(2-(methylamino)pyrimidin-5-yl)-4-morpholinothieno[3,2-d]pyrimidin-6-ylamino)pentanamide]"
> 7.00,6.00 to 7.00,170 to 172 °C,"Cc1ccc(-c2nc(N3CCOCC3)c3sc(CN(C)c4ncc(C(=O)NO)cn4)cc3n2)cc1 [Compound 201, N-hydroxy-2-(methyl((4-morpholino-2-p-tolylthieno[3,2-d]pyrimidin-6-yl)methyl)amino)pyrimidine-5-carboxamide]"
> 7.00,6.00 to 7.00,217 to 223 °C,"Nc1ccc(-c2nc(N3CCOCC3)c3sc(CNc4ncc(C(=O)NO)cn4)cc3n2)cc1 [Compound 211, 2-((2-(4-aminophenyl)-4-morpholinothieno[3,2-d]pyrimidin-6-yl)methylamino)-N-hydroxypyrimidine-5-carboxamide]"
> 7.00,5.00 to 6.00,175 to 178 °C,"COc1ccc(-c2nc(N3CCOCC3)c3sc(C(C)(C)N(C)c4ncc(C(=O)NO)cn4)cc3n2)cn1 [Compound 251, N-Hydroxy-2-((2-(2-(6-methoxypyridin-3-yl)-4-morpholinothieno[3,2-d]pyrimidin-6-yl)propan-2-yl)(methyl)amino)pyrimidine-5-carboxamide]"
6.00 to 7.00,> 7.00,188 to 190 °C,"O=C(CCCCCCNCc1cc2nc(-c3cccc4[nH]ncc34)nc(N3CCOCC3)c2s1)NO [Compound 44, 7-((2-(1H-indazol-4-yl)-4-morpholinothieno[3,2-d]pyrimidin-6-yl)methylamino)-N-hydroxyheptanamide]"
6.00 to 7.00,< 5.00,140 to 145 °C,"CS(=O)(=O)N1CCN(Cc2cc3nc(-c4cccc5[nH]ncc45)nc(N4CCN(CCCCCC(=O)NO)CC4)c3s2)CC1 [Compound 31, 6-(4-(2-(1H-indazol-4-yl)-6-((4-(methylsulfonyl)piperazin-1-yl)methyl)thieno[3,2-d]pyrimidin-4-yl)piperazin-1-yl)-N-hydroxyhexanamide]"
5.00 to 6.00,> 7.00,188 to 190 °C,"CN(Cc1cc2nc(-c3cccc4[nH]ncc34)nc(N3CCOCC3)c2s1)c1ccc(/C=C/C(=O)NO)cc1 [Compound 81, (E)-3-(4-(((2-(1H-indazol-4-yl)-4-morpholinothieno[3,2-d]pyrimidin-6-yl)methyl)(methyl)amino)phenyl)-N-hydroxyacrylamide]"
6.00 to 7.00,> 7.00,123 to 124 °C,O=C(CCCCCN1CCN(Cc2cc3nc(-c4cccc5[nH]ncc45)nc(N4CCOCC4)c3s2)CC1)NO [Compound 12]
